Our source for the Ki values is patent US20240150293A1, “SPIROCYCLOHEXANE DERIVATIVES, PHARMACEUTICAL COMPOSITIONS CONTAINING THEM AND THEIR USES AS ANTI-APOPTOTIC INHIBITORS” (LES LABORATOIRES SERVIER, priority 2021, published 2024).

SMILES strings stand for the structures.

The target in the assay is Mcl-1 protein (UniProtKB Q07820) (Homo sapiens (Human), UniProt Q07820). Nature of the assay: Inhibition of Mcl-1 by the fluorescence polarisation assay (Example A, Method A). Particulars: fluorescence polarization assay. It is filed as binding. In short, it runs like this: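 Protein (5 nM) and fluorescein-tagged peptide tracer (1 nM) incubated with 11-point compound series for 2 h at room temperature in HEPES/NaCl/Tween 20 buffer, pH 7.4, 5% DMSO. Displacement read as decrease in polarisation; IC50 fitted by 4-parameter logistic, converted to Ki (cKi or eKi).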
Mcl-1 protein, sequence (Q07820 whole entry): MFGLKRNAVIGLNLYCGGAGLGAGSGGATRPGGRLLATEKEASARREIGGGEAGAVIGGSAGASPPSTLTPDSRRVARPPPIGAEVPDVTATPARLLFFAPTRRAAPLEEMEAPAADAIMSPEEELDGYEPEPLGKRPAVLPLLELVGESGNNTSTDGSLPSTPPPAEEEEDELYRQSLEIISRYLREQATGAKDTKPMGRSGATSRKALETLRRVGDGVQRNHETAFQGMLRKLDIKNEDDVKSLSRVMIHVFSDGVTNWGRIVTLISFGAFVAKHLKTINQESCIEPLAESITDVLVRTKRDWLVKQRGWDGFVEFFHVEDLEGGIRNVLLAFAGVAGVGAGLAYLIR
In the case of `COCCOc1cccc(C2=Cc3ccccc3[C@]23CC[C@@](Nc2cccc(Cl)c2)(C(=O)O)CC3)c1` [Example 315, (1s,4s)-4-(3-chloroanilino)-2′-[3-(2-methoxyethoxy)phenyl]spiro[cyclohexane-1,1′-indene]-4-carboxylic acid], the Ki (usually the equilibrium dissociation constant of an inhibitor or competing ligand from its target) came out at 546 nM.
On to `Cc1csc(C2=Cc3ccccc3[C@]23CC[C@@](Nc2cccc(Cl)c2)(C(=O)O)CC3)c1` [Example 316, (1s,4s)-4-(3-chloroanilino)-2′-(4-methylthiophen-2-yl)spiro[cyclohexane-1,1′-indene]-4-carboxylic acid], for which the Ki was 1870 nM.
With `O=C(O)[C@]1(Nc2cccc(Cl)c2)CC[C@]2(CC1)C(c1ccc(-c3ccccc3)o1)=Cc1ccccc12` [Example 317, (1s,4s)-4-(3-chloroanilino)-2′-(5-phenylfuran-2-yl)spiro[cyclohexane-1,1′-indene]-4-carboxylic acid], the Ki worked out at 942 nM.
With `Cc1cc(C2=Cc3ccccc3[C@]23CC[C@@](Nc2cccc(Cl)c2)(C(=O)O)CC3)cs1` [Example 318, (1s,4s)-4-(3-chloroanilino)-2′-(5-methylthiophen-3-yl)spiro[cyclohexane-1,1′-indene]-4-carboxylic acid], the Ki was 1910 nM.
The figure for `O=C(O)[C@]1(Nc2cccc(Cl)c2)CC[C@@]2(CC1)c1ccccc1C[C@@H]2c1cccc(Oc2ccccc2)c1` [Example 324, (1r,2′R,4R)-4-(3-chloroanilino)-2′-(3-phenoxyphenyl)-2′,3′-dihydrospiro[cyclohexane-1,1′-indene]-4-carboxylic acid] is 8450 nM; for `O=C(O)[C@]1(Nc2cccc(Cl)c2)CC[C@@]2(CC1)c1ccccc1C[C@H]2c1cccc(Cc2ccccc2)c1` [Example 325, (1r,2′S,4S)-2′-(3-benzylphenyl)-4-(3-chloroanilino)-2′,3′-dihydrospiro[cyclohexane-1,1′-indene]-4-carboxylic acid] it is 289 nM; for `O=C(O)[C@]1(Nc2cccc(Cl)c2)CC[C@@]2(CC1)c1ccccc1C[C@@H]2c1cccc(Cc2ccccc2)c1` [Example 326, (1r,2′R,4R)-2′-(3-benzylphenyl)-4-(3-chloroanilino)-2′,3′-dihydrospiro[cyclohexane-1,1′-indene]-4-carboxylic acid] it is 19300 nM.
To `O=C(O)[C@]1(Nc2cccc(Cl)c2)CC[C@]2(CC1)C(c1ccoc1)=Cc1ccccc12` [Example 329, (1s,4s)-4-(3-chloroanilino)-2′-(furan-3-yl)spiro[cyclohexane-1,1′-indene]-4-carboxylic acid] belongs 1650 nM; to `O=C(O)[C@]1(Nc2cccc(Cl)c2)CC[C@]2(CC1)C(c1ccsc1)=Cc1ccccc12` [Example 330, (1s,4s)-4-(3-chloroanilino)-2′-(thiophen-3-yl)spiro[cyclohexane-1,1′-indene]-4-carboxylic acid], 2120 nM; to `COc1cc(Cl)cc(C2=Cc3ccccc3[C@]23CC[C@@](Nc2cccc(Cl)c2)(C(=O)O)CC3)c1` [Example 331, (1s,4s)-4-(3-chloroanilino)-2′-(3-chloro-5-methoxyphenyl)spiro[cyclohexane-1,1′-indene]-4-carboxylic acid], 2180 nM.
The figure for `O=C(O)[C@]1(Nc2cccc(Cl)c2)CC[C@@]2(CC1)c1ccccc1C[C@@H]2c1cccc(OCc2ccccc2)c1` [Example 333, (1r,2′R,4R)-2′-[3-(benzyloxy)phenyl]-4-(3-chloroanilino)-2′,3′-dihydrospiro[cyclohexane-1,1′-indene]-4-carboxylic acid] is 13200 nM.
Consider `O=C(O)[C@]1(Nc2cccc(Cl)c2)CC[C@]2(CC1)C(c1cccc(Cl)c1)=Cc1ccccc12` [Example 334, (1s,4s)-4-(3-chloroanilino)-2′-(3-chlorophenyl)spiro[cyclohexane-1,1′-indene]-4-carboxylic acid], for which the Ki turned out to be 2000 nM.
The figure for `Cc1cccc(C2=Cc3ccccc3[C@]23CC[C@@](Nc2cccc(Cl)c2)(C(=O)O)CC3)c1` [Example 335, (1s,4s)-4-(3-chloroanilino)-2′-(3-methylphenyl)spiro[cyclohexane-1,1′-indene]-4-carboxylic acid] is 889 nM; for `COc1cc(OC)cc([C@@H]2Cc3ccccc3[C@]23CC[C@@](Nc2cccc(Cl)c2)(C(=O)O)CC3)c1` [Example 336, (1r,2′S,4S)-4-(3-chloroanilino)-2′-(3,5-dimethoxyphenyl)-2′,3′-dihydrospiro[cyclohexane-1,1′-indene]-4-carboxylic acid] it is 2440 nM.
The figure for `O=C(O)[C@]1(Nc2cccc(Cl)c2)CC[C@@]2(CC1)c1ccccc1C[C@@H]2c1cc2ccccc2o1` [Example 338, (1r,2′S,4S)-2′-(1-benzofuran-2-yl)-4-(3-chloroanilino)-2′,3′-dihydrospiro[cyclohexane-1,1′-indene]-4-carboxylic acid] is 5690 nM; for `O=C(O)[C@]1(Nc2cccc(Cl)c2)CC[C@]2(CC1)C(c1cccc(OCC3CC3)c1)=Cc1ccccc12` [Example 339, (1s,4s)-4-(3-chloroanilino)-2′-[3-(cyclopropylmethoxy)phenyl]spiro[cyclohexane-1,1′-indene]-4-carboxylic acid] it is 154 nM.
The figure for `O=C(O)[C@]1(Nc2cccc(Cl)c2)CC[C@]2(CC1)C(c1cccc3occc13)=Cc1ccccc12` [Example 340, (1s,4s)-2′-(1-benzofuran-4-yl)-4-(3-chloroanilino)spiro[cyclohexane-1,1′-indene]-4-carboxylic acid] is 921 nM; for `O=C(O)[C@]1(Nc2cccc(Cl)c2)CC[C@]2(CC1)C(c1ccc(Oc3ccncc3)cc1)=Cc1ccccc12` [Example 342, (1s,4s)-4-(3-chloroanilino)-2′-{4-[(pyridin-4-yl)oxy]phenyl}spiro[cyclohexane-1,1′-indene]-4-carboxylic acid] it is 785 nM.
For `O=C(O)[C@]1(Nc2cccc(Cl)c2)CC[C@]2(CC1)C(c1ccc(OCc3ccncc3)cc1)=Cc1ccccc12` [Example 349, (1s,4s)-4-(3-chloroanilino)-2′-{4-[(pyridin-4-yl)methoxy]phenyl}spiro[cyclohexane-1,1′-indene]-4-carboxylic acid], the Ki worked out at 3590 nM.
Take `O=C(O)[C@]1(Nc2cccc(Cl)c2)CC[C@]2(CC1)C(c1ccc(OCc3cccnc3)cc1)=Cc1ccccc12` [Example 350, (1s,4s)-4-(3-chloroanilino)-2′-{4-[(pyridin-3-yl)methoxy]phenyl}spiro[cyclohexane-1,1′-indene]-4-carboxylic acid]: the Ki amounted to 1750 nM.
The figure for `O=C(O)[C@]1(Nc2cccc(Cl)c2)CC[C@]2(CC1)C(c1ccc(Oc3cccnc3)cc1)=Cc1ccccc12` [Example 351, (1s,4s)-4-(3-chloroanilino)-2′-{4-[(pyridin-3-yl)oxy]phenyl}spiro[cyclohexane-1,1′-indene]-4-carboxylic acid] is 544 nM.
`O=C(O)[C@]1(Nc2cccc(Cl)c2)CC[C@@]2(CC1)c1ccccc1C[C@H]2c1ccc(-c2ccccc2)o1` [Example 356, (1r,2′R,4R)-4-(3-chloroanilino)-2′-(5-phenylfuran-2-yl)-2′,3′-dihydrospiro[cyclohexane-1,1′-indene]-4-carboxylic acid]: the Ki came to 476 nM.
To `O=C(O)[C@]1(Nc2cccc(Cl)c2)CC[C@@]2(CC1)c1ccccc1C[C@@H]2c1ccc(-c2ccccc2)o1` [Example 357, (1r,2′S,4S)-4-(3-chloroanilino)-2′-(5-phenylfuran-2-yl)-2′,3′-dihydrospiro[cyclohexane-1,1′-indene]-4-carboxylic acid] belongs 15400 nM; to `O=C(O)[C@]1(Nc2cccc(Cl)c2)CC[C@@]2(CC1)c1ccccc1C[C@@H]2c1ccc(Oc2ccccc2)cc1` [Example 359, (1r,2′R,4R)-4-(3-chloroanilino)-2′-(4-phenoxyphenyl)-2′,3′-dihydrospiro[cyclohexane-1,1′-indene]-4-carboxylic acid], 2140 nM; to `O=C(O)[C@]1(Nc2cccc(Cl)c2)CC[C@]2(CC1)C(C1=CCN(Cc3ccccc3)CC1)=Cc1ccccc12` [Example 360, (1r,4r)-2′-(1-benzyl-1,2,3,6-tetrahydropyridin-4-yl)-4-(3-chloroanilino)spiro[cyclohexane-1,1′-indene]-4-carboxylic acid], 17500 nM.
As to `O=C(O)[C@]1(Nc2cccc(Cl)c2)CC[C@]2(CC1)C(c1cc3c(-c4ccncc4)cccc3o1)=Cc1ccccc12` [Example 361, (1s,4s)-4-(3-chloroanilino)-2′-[4-(pyridin-4-yl)-1-benzofuran-2-yl]spiro[cyclohexane-1,1′-indene]-4-carboxylic acid], the Ki was 14800 nM.
To `COc1ccc2c(c1)[C@]1(CC[C@@](Nc3cccc(Cl)c3)(C(=O)O)CC1)C(c1cccc(C)c1)=C2` [Example 366, (1r,4r)-4-(3-chloroanilino)-6′-methoxy-2′-(3-methylphenyl)spiro[cyclohexane-1,1′-indene]-4-carboxylic acid] belongs 1390 nM; to `O=C(O)[C@]1(Nc2cccc(Cl)c2)CC[C@@]2(CC1)c1ccccc1CC2c1ccc(Oc2cccnc2)cc1` (stereo partly drawn) [Example 367, (1r,4r)-4-(3-chloroanilino)-2′-{4-[(pyridin-3-yl)oxy]phenyl}-2′,3′-dihydrospiro[cyclohexane-1,1′-indene]-4-carboxylic acid], 443 nM; to `O=C(O)C1(Nc2cccc(Cl)c2)CCC2(CC1)c1ccccc1CC2c1ccc(OCc2cccnc2)cc1` (stereo not drawn) [Example 368, (1r,4r)-4-(3-chloroanilino)-2′-{4-[(pyridin-3-yl)methoxy]phenyl}-2′,3′-dihydrospiro[cyclohexane-1,1′-indene]-4-carboxylic acid], 1320 nM.
In the case of `O=C(O)[C@]1(Nc2cccc(Cl)c2)CC[C@]2(CC1)C(c1cc3cc(-c4ccncc4)ccc3o1)=Cc1ccccc12` [Example 375, (1s,4s)-4-(3-chloroanilino)-2′-[5-(pyridin-4-yl)-1-benzofuran-2-yl]spiro[cyclohexane-1,1′-indene]-4-carboxylic acid], the Ki was 4790 nM.
